Laboratory results taken from the Kinase Knowledgebase extract (Sharma et al. 2016).
pIC50: −log10 of the molar value.

Legend:
PIK3CA (human) = PIK3CA (human) (UniProt P42336); assay: Inhibition of PIK3CA Kinase Activity
PIK3CB (Human) = PIK3CB (Human) (UniProt P42338); assay: Inhibition of PIK3CB Kinase Activity
PIK3CB (Human), sequence (P42338 whole entry, looked up): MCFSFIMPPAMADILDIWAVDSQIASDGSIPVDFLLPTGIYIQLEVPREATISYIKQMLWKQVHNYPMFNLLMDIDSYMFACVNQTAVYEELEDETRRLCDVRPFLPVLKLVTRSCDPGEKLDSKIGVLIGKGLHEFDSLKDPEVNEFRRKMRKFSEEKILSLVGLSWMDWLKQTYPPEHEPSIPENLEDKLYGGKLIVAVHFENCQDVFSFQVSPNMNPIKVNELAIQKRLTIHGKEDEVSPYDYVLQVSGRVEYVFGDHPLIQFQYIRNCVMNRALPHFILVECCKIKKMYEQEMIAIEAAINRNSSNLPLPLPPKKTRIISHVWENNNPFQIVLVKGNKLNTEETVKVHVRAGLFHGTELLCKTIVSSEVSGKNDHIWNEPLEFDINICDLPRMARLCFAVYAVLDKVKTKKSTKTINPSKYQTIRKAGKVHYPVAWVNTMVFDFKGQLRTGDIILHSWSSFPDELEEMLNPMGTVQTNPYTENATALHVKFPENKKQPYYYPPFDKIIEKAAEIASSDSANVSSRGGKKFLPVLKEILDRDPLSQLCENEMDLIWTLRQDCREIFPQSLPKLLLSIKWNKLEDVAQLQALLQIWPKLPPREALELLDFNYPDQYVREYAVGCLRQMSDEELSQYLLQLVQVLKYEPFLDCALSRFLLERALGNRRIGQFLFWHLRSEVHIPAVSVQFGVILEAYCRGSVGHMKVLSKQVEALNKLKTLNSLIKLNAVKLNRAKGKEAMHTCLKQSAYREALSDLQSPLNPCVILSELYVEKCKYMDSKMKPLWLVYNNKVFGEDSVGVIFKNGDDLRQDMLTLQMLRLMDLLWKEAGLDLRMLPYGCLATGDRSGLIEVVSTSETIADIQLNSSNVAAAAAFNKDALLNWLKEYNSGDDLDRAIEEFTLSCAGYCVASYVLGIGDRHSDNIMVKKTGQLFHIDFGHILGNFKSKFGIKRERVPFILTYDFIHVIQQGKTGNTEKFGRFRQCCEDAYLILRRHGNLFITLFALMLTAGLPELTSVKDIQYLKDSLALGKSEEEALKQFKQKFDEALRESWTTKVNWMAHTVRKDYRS

PIK3CA (human), sequence (P42336 whole entry, looked up): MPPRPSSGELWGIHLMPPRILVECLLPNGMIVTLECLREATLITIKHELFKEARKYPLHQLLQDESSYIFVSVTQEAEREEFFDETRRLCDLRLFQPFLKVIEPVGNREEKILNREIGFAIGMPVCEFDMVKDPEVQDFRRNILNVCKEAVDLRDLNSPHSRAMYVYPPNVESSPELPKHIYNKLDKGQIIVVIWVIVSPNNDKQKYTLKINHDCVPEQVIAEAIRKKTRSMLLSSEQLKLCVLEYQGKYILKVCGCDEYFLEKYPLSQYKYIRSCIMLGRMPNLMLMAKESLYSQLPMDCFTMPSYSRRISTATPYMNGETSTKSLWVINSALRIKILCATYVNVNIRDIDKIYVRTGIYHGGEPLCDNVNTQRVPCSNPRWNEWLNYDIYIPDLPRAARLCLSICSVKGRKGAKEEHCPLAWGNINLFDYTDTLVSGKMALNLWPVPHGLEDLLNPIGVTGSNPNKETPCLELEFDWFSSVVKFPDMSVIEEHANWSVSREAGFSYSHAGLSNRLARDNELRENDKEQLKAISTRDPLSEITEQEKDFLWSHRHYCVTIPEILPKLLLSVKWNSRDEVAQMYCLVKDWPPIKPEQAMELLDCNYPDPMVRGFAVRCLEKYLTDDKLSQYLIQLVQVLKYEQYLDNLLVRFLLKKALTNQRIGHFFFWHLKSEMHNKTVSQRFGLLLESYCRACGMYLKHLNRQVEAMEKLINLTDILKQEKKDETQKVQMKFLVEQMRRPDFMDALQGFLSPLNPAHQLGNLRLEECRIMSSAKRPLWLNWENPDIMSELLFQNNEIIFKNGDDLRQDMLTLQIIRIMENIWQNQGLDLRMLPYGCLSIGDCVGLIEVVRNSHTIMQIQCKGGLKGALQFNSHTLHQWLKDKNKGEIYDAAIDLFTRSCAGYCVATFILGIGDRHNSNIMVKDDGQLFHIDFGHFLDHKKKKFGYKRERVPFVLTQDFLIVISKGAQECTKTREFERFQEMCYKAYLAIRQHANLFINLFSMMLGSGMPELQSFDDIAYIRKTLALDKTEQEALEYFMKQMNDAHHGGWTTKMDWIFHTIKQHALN

## CC(=O)Nc1nc2ccc(-c3ccnc(N4CCC[C@@H]4c4ccccc4)n3)cc2s1
PIK3CA (human)
  pIC50: 5.58
PIK3CB (Human)
  pIC50: 5.79

## COc1ccc(COc2nccc(-c3ccc4nc(NC(C)=O)sc4c3)n2)cc1
PIK3CB (Human)
  pIC50: 4.88

## CC(=O)Nc1nc2ccc(-c3ccnc(OCCCN4CCOCC4)n3)cc2s1
PIK3CB (Human)
  pIC50: 4.96

## CC(=O)Nc1nc2ccc(-c3cnc(Cl)c(OC4CCOC4)c3)cc2s1 (stereo not drawn)
PIK3CA (human)
  pIC50: 6.77
PIK3CB (Human)
  pIC50: 5.54

## CC(=O)Nc1nc2ccc(-c3cccc(N)c3)nc2s1
PIK3CB (Human)
  pIC50: 4.88

## CC(=O)Nc1nc2ccc(-c3cnc(Cl)c(F)c3)cc2s1
PIK3CB (Human)
  pIC50: 4.88

## CC(=O)Nc1nc2ccc(-c3cnc(Cl)c(OC(C)C)c3)cc2s1
PIK3CA (human)
  pIC50: 7.36
PIK3CB (Human)
  pIC50: 6.33

## CC(=O)Nc1nc2ccc(-c3ccnc(N4CCC[C@@H]4c4ccccc4C)n3)cc2s1
PIK3CA (human)
  pIC50: 5.81
PIK3CB (Human)
  pIC50: 6.11

## COc1cc(-c2ccc3nc(NC(C)=O)sc3c2)cnc1Br
PIK3CB (Human)
  pIC50: 4.88
